Source: the supplement of paper PMC11986102

How the values were obtained:
Test in all cases: OD600 after 10 h growth (baseline-subtracted); higher = more bacterial growth (less inhibition)
[1] = tested on: Escherichia coli CFT073 (UPEC)
Protocol: (§1)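 Broth microdilution growth assay in Mueller Hinton broth, 100 µL in 96-well plates, inoculated 1:200 from OD600 0.1 overnight cultures by pinning, 37 °C with shaking at 800 rpm, 1:2 serial dilutions from 128 µg/mL (64 µg/mL for Ebastine). The read-out is OD600 after 10 h; curves were baseline-corrected by subtracting the minimum of the 2nd-4th measurements. Three biological replicates, with water and DMSO no-compound controls.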

Escherichia coli IAI1 = tested on: Escherichia coli IAI1
Protocol: as §1

[2] = tested on: Klebsiella pneumoniae MKP103
Protocol: as §1

[3] = tested on: Pseudomonas aeruginosa PA14
Protocol: as §1

[4] = tested on: Staphylococcus aureus Newman
Protocol: as §1

Cc1cn([C@H]2C[C@H](O)[C@@H](CO)O2)c(=O)[nH]c1=O [Thymidine]
OD600 after 10 h growth
Conditions | Escherichia coli IAI1 | [1] | [2] | [3] | [4]
0.1 µg/mL | 0.814 | 0.783 | 0.666 | 0.756 | 1.08
0.2 µg/mL | 0.952 | 0.956 | 0.669 | 0.899 | 1.07
0.5 µg/mL | 0.803 | 0.788 | 0.67 | 0.749 | 1.07
1 µg/mL | 0.802 | 0.794 | 0.666 | 0.748 | 1.22
2 µg/mL | 0.81 | 0.891 | 0.674 | 0.758 | 1.16
4 µg/mL | 0.808 | 0.89 | 0.69 | 0.853 | 1.39
8 µg/mL | 0.805 | 0.932 | 0.838 | 0.748 | 1.28
16 µg/mL | 0.804 | 0.873 | 0.773 | 0.745 | 1.23
32 µg/mL | 0.792 | 0.804 | 0.684 | 0.738 | 1.1
64 µg/mL | 0.782 | 0.786 | 0.672 | 0.718 | 1.09
128 µg/mL | 0.772 | 0.772 | 0.645 | 0.645 | 1.1

CC1=C(C)C(=O)C(CCCCCCCCCC[P+](c2ccccc2)(c2ccccc2)c2ccccc2)=CC1=O [Visomitin]
OD600 after 10 h growth
Conditions | Escherichia coli IAI1 | [1] | [2] | [3] | [4]
0.1 µg/mL | 0.805 | 0.786 | 0.672 | 0.762 | 1.08
0.2 µg/mL | 0.808 | 0.787 | 0.672 | 0.757 | 1.08
0.5 µg/mL | 0.8 | 0.785 | 0.676 | 0.757 | 1.09
1 µg/mL | 0.848 | 0.785 | 0.674 | 0.754 | 1.08
2 µg/mL | 0.815 | 0.818 | 0.679 | 0.856 | 0.0277
4 µg/mL | 0.795 | 0.809 | 0.686 | 0.821 | 0.0387
8 µg/mL | 0.769 | 0.777 | 0.697 | 0.733 | 0.0433
16 µg/mL | 0.045 | 0.0113 | 0.7 | 0.717 | 0.0257
32 µg/mL | 0.0307 | 0.007 | 0.196 | 0.681 | 0.0217
64 µg/mL | 0.032 | 0.0133 | 0.00967 | 0.0773 | 0.0133
128 µg/mL | 0.0327 | 0.024 | 0.0183 | 0.0423 | 0.025
